The results in this text go back to patent US20230143604A1, “QW DOSING OF GIP RECEPTOR AGONIST PEPTIDE COMPOUNDS AND USES THEREOF” (TAKEDA PHARMACEUTICAL COMPANY LIMITED, priority 2020, published 2023).

The structures appear in SMILES notation. Starred links: 1 amine or outer side, 2 acyl side, 3 side chain; linkers in the order of their positions; H or OH if unused. Non-standard residues stand in square brackets, D forms with d. Residues, ends and D or L forms follow the SMILES beside them. Groups on a side chain read outwards from the residue. *: point of attachment. C18 diacid = O=C(O)CCCCCCCCCCCCCCCCC(=O)*; C17 diacid = O=C(O)CCCCCCCCCCCCCCCC(=O)*; γGlu = O=C(O)[C@H](CCC(=O)[*:2])N[*:1]; NMeY = CN[C@@H](Cc1ccc(O)cc1)C(=O)O; AEEA = NCCOCCOCC(=O)O; Aib = CC(C)(N)C(=O)O Bounds are passed on as bounds.

A short description of the data set: Solubility in phosphate buffer pH 7.4. A digest of the protocol: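 Solubility at pH 7.4 determined by stepwise addition of 200 mM phosphate buffer in 100 μL increments to 3 mg peptide, mixing briefly each time, until no insoluble material remained, then measured by liquid chromatography.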
Where [1] appears, read: pH 7.4, aqueous buffer, pH 7.4 Phosphate Buffer - Solubility, 200 mM Phosphate buffer pH 7.4.
Where [2] appears, read: pH 7.4, solubility in phosphate buffer at pH 7.4, 200 mM phosphate buffer pH 7.4.

Consider `CC[C@H](C)[C@H](NC(=O)[C@H](Cc1ccccc1)NC(=O)[C@@H](NC(=O)CNC(=O)[C@H](CCC(=O)O)NC(=O)C(C)(C)NC(=O)[C@H](Cc1ccc(O)cc1)NC)[C@@H](C)O)C(=O)N[C@@H](CO)C(=O)N[C@@H](CC(=O)O)C(=O)N[C@@H](Cc1ccc(O)cc1)C(=O)N[C@@H](CO)C(=O)N[C@H](C(=O)NC(C)(C)C(=O)N[C@@H](CC(C)C)C(=O)N[C@@H](CC(=O)O)C(=O)N[C@@H](CCCNC(=N)N)C(=O)N[C@@H](CCCCNC(=O)COCCOCCNC(=O)COCCOCCNC(=O)CC[C@H](NC(=O)CC[C@H](NC(=O)CCCCCCCCCCCCCCCCC(=O)O)C(=O)O)C(=O)O)C(=O)N[C@@H](C)C(=O)N[C@@H](CCC(N)=O)C(=O)NC(C)(C)C(=O)N[C@@H](CC(N)=O)C(=O)N[C@@H](Cc1ccccc1)C(=O)N[C@H](C(=O)N[C@@H](CC(N)=O)C(=O)N[C@@H](Cc1c[nH]c2ccccc12)C(=O)N[C@@H](CC(C)C)C(=O)N[C@@H](CC(C)C)C(=O)N[C@@H](C)C(=O)N[C@@H](CCC(N)=O)C(=O)N[C@@H](CCCNC(=N)N)C(=O)N1CCC[C@H]1C(=O)N[C@@H](CO)C(=O)N[C@@H](CO)C(=O)NCC(=O)N[C@@H](C)C(=O)N1CCC[C@H]1C(=O)N1CCC[C@H]1C(=O)N1CCC[C@H]1C(=O)N[C@@H](CO)C(N)=O)C(C)C)[C@@H](C)CC` [Compound 26] (H-[NMeY][Aib]EGTFISDYSI[Aib]LDRK([AEEA-AEEA-γGlu-γGlu-C18 diacid])AQ[Aib]NFVNWLLAQRPSSGAPPPS-NH2), for which the solubility reads like this: under setting [1], no less than 30 mg/mL; under setting [2], no less than 15 mg/mL. For `CC[C@H](C)[C@H](NC(=O)[C@H](Cc1ccccc1)NC(=O)[C@@H](NC(=O)CNC(=O)[C@H](CCC(=O)O)NC(=O)C(C)(C)NC(=O)[C@H](Cc1ccc(O)cc1)NC)[C@@H](C)O)C(=O)N[C@@H](CO)C(=O)N[C@@H](CC(=O)O)C(=O)N[C@@H](Cc1ccc(O)cc1)C(=O)N[C@@H](CO)C(=O)N[C@H](C(=O)NC(C)(C)C(=O)N[C@@H](CC(C)C)C(=O)N[C@@H](CC(=O)O)C(=O)N[C@@H](CCCNC(=N)N)C(=O)NC(C)(C)C(=O)N[C@@H](C)C(=O)N[C@@H](CCC(N)=O)C(=O)NC(C)(C)C(=O)N[C@@H](CCCCNC(=O)COCCOCCNC(=O)COCCOCCNC(=O)CC[C@H](NC(=O)CC[C@H](NC(=O)CCCCCCCCCCCCCCCCC(=O)O)C(=O)O)C(=O)O)C(=O)N[C@@H](Cc1ccccc1)C(=O)N[C@H](C(=O)N[C@@H](CC(N)=O)C(=O)N[C@@H](Cc1c[nH]c2ccccc12)C(=O)N[C@@H](CC(C)C)C(=O)N[C@@H](CC(C)C)C(=O)N[C@@H](C)C(=O)N[C@@H](CCC(N)=O)C(=O)N[C@@H](CO)C(=O)N1CCC[C@H]1C(=O)N[C@@H](CO)C(=O)N[C@@H](CO)C(=O)NCC(=O)N[C@@H](C)C(=O)N1CCC[C@H]1C(=O)N1CCC[C@H]1C(=O)N1CCC[C@H]1C(=O)N[C@@H](CO)C(N)=O)C(C)C)[C@@H](C)CC` [Compound 90] (H-[NMeY][Aib]EGTFISDYSI[Aib]LDR[Aib]AQ[Aib]K([AEEA-AEEA-γGlu-γGlu-C18 diacid])FVNWLLAQSPSSGAPPPS-NH2), the solubility runs as follows: under setting [1], no less than 60 mg/mL; under setting [2], no less than 15 mg/mL. `CC[C@H](C)[C@H](NC(=O)[C@H](Cc1ccccc1)NC(=O)[C@@H](NC(=O)CNC(=O)[C@H](CCC(=O)O)NC(=O)C(C)(C)NC(=O)[C@H](Cc1ccc(O)cc1)NC)[C@@H](C)O)C(=O)N[C@@H](CO)C(=O)N[C@@H](CC(=O)O)C(=O)N[C@@H](Cc1ccc(O)cc1)C(=O)N[C@@H](CO)C(=O)N[C@H](C(=O)NC(C)(C)C(=O)N[C@@H](CCCCNC(=O)COCCOCCNC(=O)COCCOCCNC(=O)CC[C@H](NC(=O)CC[C@H](NC(=O)CCCCCCCCCCCCCCCC(=O)O)C(=O)O)C(=O)O)C(=O)N[C@@H](CC(=O)O)C(=O)N[C@@H](CCCNC(=N)N)C(=O)NC(C)(C)C(=O)N[C@@H](C)C(=O)N[C@@H](CCC(N)=O)C(=O)NC(C)(C)C(=O)N[C@@H](CC(N)=O)C(=O)N[C@@H](Cc1ccccc1)C(=O)N[C@H](C(=O)N[C@@H](CC(N)=O)C(=O)N[C@@H](Cc1c[nH]c2ccccc12)C(=O)N[C@@H](CC(C)C)C(=O)N[C@@H](CC(C)C)C(=O)N[C@@H](C)C(=O)N[C@@H](CCC(N)=O)C(=O)N[C@@H](CCCNC(=N)N)C(=O)NCC(=O)NCC(=O)NCC(=O)NCC(=O)N[C@@H](CO)C(N)=O)C(C)C)[C@@H](C)CC` [Compound 32] (H-[NMeY][Aib]EGTFISDYSI[Aib]K([AEEA-AEEA-γGlu-γGlu-C17 diacid])DR[Aib]AQ[Aib]NFVNWLLAQRGGGGS-NH2) registered a solubility (pH 7.4) of no less than 15 mg/mL and a solubility (pH 7.4, aqueous buffer) of no less than 30 mg/mL. Regarding `CC[C@H](C)[C@H](NC(=O)[C@H](CO)NC(=O)[C@H](Cc1ccc(O)cc1)NC(=O)[C@H](CC(=O)O)NC(=O)[C@H](CO)NC(=O)[C@@H](NC(=O)[C@H](Cc1ccccc1)NC(=O)[C@@H](NC(=O)CNC(=O)[C@H](CCC(=O)O)NC(=O)C(C)(C)NC(=O)[C@H](Cc1ccc(O)cc1)NC)[C@@H](C)O)[C@@H](C)CC)C(=O)N[C@@H](C)C(=O)N[C@@H](CCCCNC(=O)COCCOCCNC(=O)COCCOCCNC(=O)CC[C@H](NC(=O)CCCCCCCCCCCCCCCCC(=O)O)C(=O)O)C(=O)N[C@@H](CC(=O)O)C(=O)N[C@@H](CCCNC(=N)N)C(=O)NC(C)(C)C(=O)N[C@@H](C)C(=O)N[C@@H](CCC(N)=O)C(=O)NC(C)(C)C(=O)N[C@@H](CC(N)=O)C(=O)N[C@@H](Cc1ccccc1)C(=O)N[C@H](C(=O)N[C@@H](CC(N)=O)C(=O)N[C@@H](Cc1c[nH]c2ccccc12)C(=O)N[C@@H](CC(C)C)C(=O)N[C@@H](CC(C)C)C(=O)N[C@@H](C)C(=O)N[C@@H](CCC(N)=O)C(=O)N[C@@H](CCCNC(=N)N)C(N)=O)C(C)C` [Compound 254] (H-[NMeY][Aib]EGTFISDYSIAK([AEEA-AEEA-γGlu-C18 diacid])DR[Aib]AQ[Aib]NFVNWLLAQR-NH2), the solubility (pH 7.4, aqueous buffer) is no less than 7.2 mg/mL. In turn, `CC[C@H](C)[C@H](NC(=O)[C@H](Cc1ccccc1)NC(=O)[C@@H](NC(=O)CNC(=O)[C@H](CCC(=O)O)NC(=O)C(C)(C)NC(=O)[C@H](Cc1ccc(O)cc1)NC)[C@@H](C)O)C(=O)N[C@@H](CO)C(=O)N[C@@H](CC(=O)O)C(=O)N[C@@H](Cc1ccc(O)cc1)C(=O)N[C@@H](CO)C(=O)N[C@H](C(=O)NC(C)(C)C(=O)N[C@@H](CCCCNC(=O)CNC(=O)CNC(=O)CNC(=O)CNC(=O)CNC(=O)CC[C@H](NC(=O)CC[C@H](NC(=O)CCCCCCCCCCCCCCCC(=O)O)C(=O)O)C(=O)O)C(=O)N[C@@H](CC(=O)O)C(=O)N[C@@H](CCCNC(=N)N)C(=O)NC(C)(C)C(=O)N[C@@H](C)C(=O)N[C@@H](CCC(N)=O)C(=O)NC(C)(C)C(=O)N[C@@H](CC(N)=O)C(=O)N[C@@H](Cc1ccccc1)C(=O)N[C@H](C(=O)N[C@@H](CC(N)=O)C(=O)N[C@@H](Cc1c[nH]c2ccccc12)C(=O)N[C@@H](CC(C)C)C(=O)N[C@@H](CC(C)C)C(=O)N[C@@H](C)C(=O)N[C@@H](CCC(N)=O)C(=O)N[C@@H](CCCNC(=N)N)C(N)=O)C(C)C)[C@@H](C)CC` [Compound 264] showed a solubility (pH 7.4, aqueous buffer) of less than 6 mg/mL.

Regarding `CC[C@H](C)[C@H](NC(=O)[C@H](CO)NC(=O)[C@H](Cc1ccc(O)cc1)NC(=O)[C@H](CC(=O)O)NC(=O)[C@H](CO)NC(=O)[C@@H](NC(=O)[C@H](Cc1ccccc1)NC(=O)[C@@H](NC(=O)CNC(=O)[C@H](CCC(=O)O)NC(=O)C(C)(C)NC(=O)[C@H](Cc1ccc(O)cc1)NC)[C@@H](C)O)[C@@H](C)CC)C(=O)N[C@@H](C)C(=O)N[C@@H](CC(C)C)C(=O)N[C@@H](CC(=O)O)C(=O)N[C@@H](CO)C(=O)N[C@@H](CCCCNC(=O)CNC(=O)CNC(=O)CNC(=O)CNC(=O)CNC(=O)CCCCCCCCCCCCCCCCC(=O)O)C(=O)N[C@@H](C)C(=O)N[C@@H](CCC(N)=O)C(=O)NC(C)(C)C(=O)N[C@@H](CC(=O)O)C(=O)N[C@@H](Cc1ccccc1)C(=O)N[C@H](C(=O)N[C@@H](CC(N)=O)C(=O)N[C@@H](Cc1c[nH]c2ccccc12)C(=O)N[C@@H](CC(C)C)C(=O)N[C@@H](CC(C)C)C(=O)N[C@@H](C)C(=O)N[C@@H](CCC(N)=O)C(=O)N[C@@H](CCCCN)C(=O)NCC(=O)O)C(C)C` [Compound 78], the solubility was no less than 15 mg/mL (pH 7.4) and no less than 30 mg/mL (pH 7.4, aqueous buffer). `CC[C@H](C)[C@H](NC(=O)[C@H](Cc1ccccc1)NC(=O)[C@@H](NC(=O)CNC(=O)[C@H](CCC(=O)O)NC(=O)C(C)(C)NC(=O)[C@H](Cc1ccc(O)cc1)NC)[C@@H](C)O)C(=O)N[C@@H](CO)C(=O)N[C@@H](CC(=O)O)C(=O)N[C@@H](Cc1ccc(O)cc1)C(=O)N[C@@H](CO)C(=O)N[C@H](C(=O)NC(C)(C)C(=O)N[C@@H](CC(C)C)C(=O)N[C@@H](CC(=O)O)C(=O)N[C@@H](CCCNC(=N)N)C(=O)NC(C)(C)C(=O)N[C@@H](CCCCNC(=O)COCCOCCNC(=O)COCCOCCNC(=O)CC[C@H](NC(=O)CC[C@H](NC(=O)CCCCCCCCCCCCCCCCC(=O)O)C(=O)O)C(=O)O)C(=O)N[C@@H](C)C(=O)NC(C)(C)C(=O)N[C@@H](CC(N)=O)C(=O)N[C@@H](Cc1ccccc1)C(=O)N[C@H](C(=O)N[C@@H](CC(N)=O)C(=O)N[C@@H](Cc1c[nH]c2ccccc12)C(=O)N[C@@H](CC(C)C)C(=O)N[C@@H](CC(C)C)C(=O)N[C@@H](C)C(=O)N[C@@H](CCC(N)=O)C(=O)N[C@@H](CO)C(=O)N1CCC[C@H]1C(=O)N[C@@H](CO)C(=O)N[C@@H](CO)C(=O)NCC(=O)N[C@@H](C)C(=O)N1CCC[C@H]1C(=O)N1CCC[C@H]1C(=O)N1CCC[C@H]1C(=O)N[C@@H](CO)C(N)=O)C(C)C)[C@@H](C)CC` [Compound 109] (H-[NMeY][Aib]EGTFISDYSI[Aib]LDR[Aib]K([AEEA-AEEA-γGlu-γGlu-C18 diacid])A[Aib]NFVNWLLAQSPSSGAPPPS-NH2): the solubility is, setting by setting: under setting [1], no less than 60 mg/mL; under setting [2], no less than 15 mg/mL.

In general, solubility refers to how much of the substance goes into solution per volume. High values mean much dissolved substance, low ones little dissolved substance.
